# In US20240041986A1, “METHODS AND COMPOSITIONS FOR THE TREATMENT AND PREVENTION OF TYPE 1 DIABETES” (Dr. Mary Morris & Associates, LLC, priority 2020, published 2024):
# Columns and labels:
# Assay type in all cases: in vivo, mouse
# [1] = system: anti-insulin antibodies; assay: Anti-insulin antibody ELISA of serum from sublingually treated NOD mice
# Experimental: Autoantibody titer assay. To detect anti-insulin antibodies 96-well ELISA plates were coated with 1 μg/well of Humulin® overnight at 4° C. and were blocked with 1% BSA in PBS. Sera were divided into two equal aliquots that were incubated with or without 10 μg/ml Humulin® on ice for 1 h. The sera were then added to Humulin® coated plates for incubation overnight at 4° C. After extensive washes, the plates were incubated with HRP-conjugated goat anti-mouse IgG The assay is described in Wan et al., J Exp Med. 2016 May 30; 213(6): 967-978.
# Five-week old female NOD mice were randomly assigned to two groups: (1) control group (50% PBS/glycerin); and (2) insulin-related peptide treatment (Humulin® insulin) started at six weeks of age. Mice in the treatment group (2) were sublingually administered 87 μg of Humulin® in 50% glycerin solution twice per day, five days per week, up to 30 weeks of age. Serum samples were collected from control and Humulin® SLIT treated NOD mice at 14 weeks of age and assessed for levels of anti-insulin antibody titer (i.e., after sublingual administration of Humulin® for 8 weeks) and stored at −80 C until tested for anti-insulin antibodies in the ELISA described above. The level of anti-insulin antibodies in the samples was determined by ELISA using the assay described in Wan et al., J Exp Med. 2016 May 30; 213(6): 967-978 and the results are shown in FIG. 2. […]
# [2] = system: C-peptide; assay: Serum C-peptide ELISA (ALPCO) in sublingually treated NOD mice; settings: NOD mice fasted overnight, Humulin started at 5 weeks of age, serum at 6 and 19 weeks of age (FIG. 5)
# Experimental: Serum C-peptide assay. The mouse C-peptide ELISA (ALPCO), which quantifies C-peptide protein products of mouse I and mouse II proinsulin genes, was used. Briefly, mice are fasted overnight and blood is collected by inserting a needle into the submandibular vein and collecting ˜0.2 mL of blood. The blood is centrifuged for 10 minutes at 3000×g in a refrigerated centrifuge, and serum is collected and stored −80° C. The ALPCO C-peptide ELISA is a commercially available FDA Registered For In Vitro Diagnostic Use tool for the quantification of […] C-peptide in serum and plasma samples.
# Female NOD mice were randomly assigned to two groups according to Example 3. C-peptide levels in serum were determined by ALPCO C-peptide ELISA from serum samples collected at 6 and 19 weeks of age in mice that were fasted overnight.
# [3] = system: NOD mice; assay: Incidence and time to onset of Type 1 diabetes (hyperglycemia, blood glucose above 300 mg/dL) in NOD mice after sublingual treatment; settings: for Median survival: control 21.00; for Median Survival (i.e., time to Type 1 diabetes onset): sublingual 87 μg Humulin, control 21 weeks
# Experimental: Sublingual formulation. A commercial high dose Humulin® insulin solution (Humulin® R U-500) containing 500 units of insulin per mL is mixed with an additional equal volume (1:1 (vol:vol)) 100% glycerin. Each dose contains 10 μL of the Humulin®-glycerin solution, which contains 2.5 units (approximately 87 micrograms) of insulin in a solution having a final concentration of ˜52 vol. % glycerin.
# NOD mice. Non-obese diabetic (NOD) mice, as described by Makino (Adv. Immunol. 51:285-322 (1992)), are used in the studies described herein. NOD mice provide a widely accepted animal model for the spontaneous development of Type 1 diabetes. NOD mice develop insulitis as a result of leukocyte infiltration into the pancreatic islet, which in turn leads to the destruction of pancreatic islets and a Type 1 diabetic phenotype.
# Five-week old female NOD mice were randomly assigned to three groups: (1) control group (1:1 glycerin/phosphate buffered saline (PBS)); (2) insulin-related peptide treatment (Humulin®) started at six weeks of age; or (3) insulin-related peptide treatment (Humulin®) started at ten weeks of age. Mice in the treatment groups (2) and (3) were sublingually administered 2.5 units/87 μg of Humulin® R insulin (10 μL of solution) twice per day […] from age 5 weeks 5 until 8 weeks of age and then once per day, five days per week up to 30 weeks of age. Blood glucose measurements were taken once per week up to 20 weeks of age, and then twice per week thereafter. Mice were classified as diabetic after three consecutive blood glucose readings above 300 mg/dL (hyperglycemic).
# Female NOD mice were randomly assigned to two groups: (1) control group (50% glycerin/phosphate buffered saline (PBS)); or (2) insulin-related peptide treatment (Humulin® in 50% glycerin solution; Humulin® sublingual immunotherapy (“Humulin SLIT”)) started at five weeks of age. Mice in the treatment group (2) were sublingually administered 87 μg of Humulin® once per day, five days per week starting at five weeks of age up to 30 weeks of age. Blood glucose measurements were taken once per week up to 13 weeks of age, and then twice per week thereafter. Mice were classified as diabetic after three consecutive blood glucose readings above 300 mg/dL (hyperglycemic). […]
# [4] = Humulin started at 5 weeks of age (FIG. 3)
# [5] = Humulin started at 5 weeks of age vs control (FIG. 3)
# [6] = Humulin started at 6 weeks of age (FIG. 1A)
# [7] = Humulin started at 6 weeks of age vs control (FIG. 1A)
# [8] = Humulin started at 10 weeks of age (FIG. 1B)
# [9] = Humulin started at 10 weeks of age vs control (FIG. 1B)
# [10] = combined FIG. 1A and FIG. 3 (FIG. 6)
# [11] = combined FIG. 1A and FIG. 3 vs control (FIG. 6)
substance,measurement,setting,value
"Humulin: commercial recombinant human insulin solution (Humulin® R U-500) mixed 1:1 with glycerin, sublingual formulation, 87 μg per 10 μL dose",development of anti-insulin antibodies as compared to the control group,"[1]; 87 μg Humulin started at five weeks of age, serum at 19 weeks of age (FIG. 4)",significantly reduced
same,development of anti-insulin antibodies as compared to the control group,"[1]; 87 μg Humulin started at six weeks of age, serum at 14 weeks of age (FIG. 2)",significantly reduced
same,serum C-peptide levels as compared to untreated control NOD mice,[2],either a maintenance or enhancement
same,Ratio of median survival (Control / Humulin),[3]; [4],0.7119
same,Reciprocal of ratio of median survival,[3]; [4],1.405
same,Are the survival curves sig different? Gehan-Breslow-Wilcoxon test,[3]; [5],Yes
same,Are the survival curves sig different? Log-rank (Mantel-Cox) test,[3]; [5],Yes
same,Ratio of median survival (Control / Humulin),[3]; [6],0.778
same,Reciprocal of ratio of median survival,[3]; [6],1.29
same,Are the survival curves significantly different? Gehan-Breslow-Wilcoxon test,[3]; [7],Yes
same,Are the survival curves significantly different? Log-rank (Mantel-Cox) test,[3]; [7],Yes
same,Ratio of median survival (Control / Humulin),[3]; [8],0.8750
same,Reciprocal of ratio of median survival,[3]; [8],1.14
same,Are the survival curves significantly different? Gehan-Breslow-Wilcoxon test,[3]; [9],No
same,Are the survival curves significantly different? Log-rank (Mantel-Cox) test,[3]; [9],No
same,incidence (% diabetic) and onset time (weeks) of Type 1 diabetes as compared to the control group,"[3]; NOD mice, sublingual Humulin started at five weeks of age (FIG. 3)",reduced
same,incidence (% T1D Onset) and onset time (weeks) of Type 1 diabetes as compared to the control group,"[3]; NOD mice, sublingual Humulin started at six weeks of age (FIG. 1A)",significantly reduced
same,Ratio of median survival (Control / Humulin),[3]; [10],0.8077
same,Reciprocal of ratio of median survival,[3]; [10],1.238
same,Are the survival curves sig different? Gehan-Breslow-Wilcoxon test,[3]; [11],Yes
same,Are the survival curves sig different? Log-rank (Mantel-Cox) test,[3]; [11],Yes
same,Median survival,"[3]; combined results of FIG. 1A and FIG. 3, Humulin started at 5 or 6 weeks of age (FIG. 6, time in Weeks)",26.00
same,Median survival,"[3]; female NOD mice, sublingual 87 μg Humulin once per day, five days per week, started at 5 weeks of age (FIG. 3, time in Weeks)",29.50
same,"Median Survival (i.e., time to Type 1 diabetes onset)","[3]; female NOD mice, started at 6 weeks of age (FIG. 1A)",27 weeks
same,"Median Survival (i.e., time to Type 1 diabetes onset)","[3]; female NOD mice, started at 10 weeks of age (FIG. 1B)",24 weeks
